The values below come from patent publication US5045546A, “8-azabicyclo[3.2.1]octylalkylthiazolidines” (Hoechst-Roussel Pharmaceuticals Inc., priority 1990, dated 1991).

Experiment [1] relates to apomorphine-induced climbing. Put plainly: inhibition of apomorphine-induced climbing in mice (climbing mice assay, antipsychotic activity). Format: in vivo, CK-1 male mice. The settings on record: Mus musculus, ip, 0.5 h, read-out: Antipsychotic Activity ED50. On the procedure:
The 8-azabicyclo[3.2.1]octylalkylthiazolidnones of the present invention are useful for treating psychoses by virtue of their ability to block apomorphine-induced climbing in mammals.
Antipsychotic activity is determined in the climbing mice assay by a method similar to those described by P. Protais et al., Psychopharmacol., 50,1 (1976) and B. Costall, Eur. J. Pharmacol., 50, 39 (1978).
The subject CK-1 male mice (23-27 grams) are group-housed under standard laboratory conditions. The mice are individually placed in wire mesh stick cages (4"×4"×10") and are allowed one hour for adaptation and exploration of the new environment. Then apomorphine is injected subcutaneously at 1.5 mg/kg, a dose causing climbing in all subjects for 30 minutes. Compounds to be tested for antipsychotic activity are injected intraperitoneally 30 minutes prior to the apomorphine challenge at a screening dose of 10 mg/kg.
For evaluation of climbing, 3 readings are taken at 10, 20 and 30 minutes after apomorphine administration according to the following scale:
4 paws on bottom (no climbing)
2 paws on the wall (rearing)
4 paws on the wall (full climb)
Mice consistently climbing before the injection of apomorphine will be discarded.
With full-developed apomorphine climbing, the animals are hanging onto the cage walls, rather motionless, over longer periods of time. By contrast, climbs due to mere motor stimulation usually only last a few seconds.
The climbing scores are individually totaled (maximal score; 6 per mouse over 3 readings) and the total score of the control group (vehicle intraperitioneally-apomorphine subcutaneously) is set to 100%. ED50 values with 95% confidence limits are calculated by a Linear Regression Analysis. Antipsychotic activity expressed as the ED50 value of representative 8-azabicyclo[3.2.1]octylalkylthiazolidinones as well as two standard antipsychotics are presented in Table I.

The subject of experiment [2] is apomorphine induced stereotypy. Put plainly: inhibition of apomorphine stereotypy assay (potential for extrapyramidal side effects). The settings on record: rats, drug one hour prior to scoring, apomorphine 1.5 mg/kg s.c. Format: in vivo, male Wistar rats. On the procedure: Potential for undersirable extrapyramidal side effect activity is determined in the inhibition of apomorphine stereotypy assay by a method similar to those described by N. E. Anden, et al., J. Pharma. Pharmacol., 19, 627, (1967), and A. M. Ernst, et al., Psychopharmacologia (Berl.), 10, 316 (1967).
In this assay, groups of male Wistar rats (125-200 grams) are used and food and water are available ad libitum. Drugs are prepared using distilled water and, if insoluble, a suitable surfactant is added. The route of administration may be varied and the dosage volume is 10 ml/kg. For a primary screen, a group size of six is used. Drug is administered one hour prior to scoring and the animals are placed in individual clear plastic cages (24×14×13 cm). The control group receives vehicle. Apomorphine hydrochloride solution is prepared at a concentration of 15 mg/10 ml in a 0.03% ascorbic acid stock solution (30 mg of ascorbic acid in 100 ml of 1% saline) to increase the stability of the apomorphine hydrochloride while in solution. Apomorphine hydrochloride solution is administered at a dose of 1.5 mg/kg subcutaneous (s.c.) with a dosage volume of 1 ml/kg. Fifty minutes after drug dosing, stereotypic behavior is noted. Stereotypic activity is defined as sniffing, licking or chewing behavior that occurs in a repetitive manner and is rated as follows: Constant sniffing, licking or chewing without interruption; the animal is considered protected if this behavior is interrupted.
The percent effectiveness of a drug is determined by the number of animals protected in each group. Antipsychotics displaying little effect in this assay would be expected to show a low propensity to cause undersirable extrapyramidal side effects and/or tardive dyskinesias in mammals (N. C. Moore and S. Gershon, Clinical Neuropharmacology, 12, 167, (1989).
A dose-response is run in the same manner as a primary screen except that a group size of 10 is used and the animals are dosed in a randomized manner. One group receives vehicle. ED50 for stereotypy are calculated by means of probit analysis.
Inhibition of apomorphine induced stereotypy of respresentative 8-azabicyclo[3.2.1]octylalkylthiazolidinones of the present invention and two standards is given in Table II.

Each structure is given as a SMILES string. Where two headings read alike, the source gives them in different places.

Turning to `CC1SCN(CCCCN2C3CCC2CC(OC(c2ccccc2)c2ccccc2)C3)C1=O.Cl` (centres unmarked) [3-[4-[3-(diphenylmethoxy)-8-azabicyclo[3.2.1]octan-8-yl]-butyl]-5-methyl-4-thiazolidinone hydrochloride], the ED50 (commonly the dose at which the effect has come halfway, by size or by number of responders) in experiment [1] was 12.1 mg/kg. Besides, the “% Inhibition of apomorphine induced stereotypy” value (“% Inhibition” below) in experiment [2] (dose 20 mg/kg body wt.) is recorded as 0%.
As to `CSc1ccc2c(c1)N(CCC1CCCCN1C)c1ccccc1S2` (centres unmarked) [thioridazine], in experiment [1] (climbing mice assay, compound intraperitoneal 30 minutes prior to apomorphine 1.5 mg/kg s.c., Linear Regression Analysis), the 50% effective dose (ED50) was determined as 4.1 mg/kg. Besides, in experiment [2] (dose 16 mg/kg body wt.), the “% Inhibition” value is listed as 50%.
Turning to `O=C(CCCN1CCC(O)(c2ccc(Cl)cc2)CC1)c1ccc(F)cc1` [haloperidol], in experiment [1], the ED50 is 0.16 mg/kg. Also, in experiment [2] (dose 0.2 mg/kg body wt.), the “% Inhibition” value is 50%.
For the molecule `CC1(C)SCN(CCCCN2C3CCC2CC(OC(c2ccccc2)c2ccccc2)C3)C1=O.Cl` (centres unmarked) [3-[4-[3-(diphenylmethoxy)-8-azabicyclo[3.2.1]octan-8-yl]-butyl]-5,5-dimethyl-4-thiazolidinone hydrochloride], in experiment [1], the median effective dose (ED50) worked out at 7.73 mg/kg. Further, the “% Inhibition” value in experiment [2] (dose 40 mg/kg body wt.) is reported as 17%.
